Source: the kinase profiling compilation of Christmann-Franck et al. (2016)
Blank lines part the entries; values can stand above or below the molecule they belong to.

Columns and labels:
Experiment in all cases: KINOMEscan competition binding
[1] = molecular target: KIT (human) (UniProt P10721)
[2] = molecular target: ABL1 (human), P00519 [E255K]
[3] = molecular target: MAP3K4 (human) (UniProt Q9Y6R4)
[4] = molecular target: NEK2 (human) (UniProt P51955)
[5] = molecular target: MAP3K5 (human) (UniProt Q99683)
[6] = molecular target: CAMK2D (human) (UniProt Q13557)
[7] = molecular target: EPHA5 (human) (UniProt P54756)
[8] = molecular target: SRC (human) (UniProt P12931)
[9] = molecular target: CSK (human) (UniProt P41240)
[10] = molecular target: FGFR1 (human) (UniProt P11362)
Chain of FGFR1 (human) (P11362 whole entry, looked up): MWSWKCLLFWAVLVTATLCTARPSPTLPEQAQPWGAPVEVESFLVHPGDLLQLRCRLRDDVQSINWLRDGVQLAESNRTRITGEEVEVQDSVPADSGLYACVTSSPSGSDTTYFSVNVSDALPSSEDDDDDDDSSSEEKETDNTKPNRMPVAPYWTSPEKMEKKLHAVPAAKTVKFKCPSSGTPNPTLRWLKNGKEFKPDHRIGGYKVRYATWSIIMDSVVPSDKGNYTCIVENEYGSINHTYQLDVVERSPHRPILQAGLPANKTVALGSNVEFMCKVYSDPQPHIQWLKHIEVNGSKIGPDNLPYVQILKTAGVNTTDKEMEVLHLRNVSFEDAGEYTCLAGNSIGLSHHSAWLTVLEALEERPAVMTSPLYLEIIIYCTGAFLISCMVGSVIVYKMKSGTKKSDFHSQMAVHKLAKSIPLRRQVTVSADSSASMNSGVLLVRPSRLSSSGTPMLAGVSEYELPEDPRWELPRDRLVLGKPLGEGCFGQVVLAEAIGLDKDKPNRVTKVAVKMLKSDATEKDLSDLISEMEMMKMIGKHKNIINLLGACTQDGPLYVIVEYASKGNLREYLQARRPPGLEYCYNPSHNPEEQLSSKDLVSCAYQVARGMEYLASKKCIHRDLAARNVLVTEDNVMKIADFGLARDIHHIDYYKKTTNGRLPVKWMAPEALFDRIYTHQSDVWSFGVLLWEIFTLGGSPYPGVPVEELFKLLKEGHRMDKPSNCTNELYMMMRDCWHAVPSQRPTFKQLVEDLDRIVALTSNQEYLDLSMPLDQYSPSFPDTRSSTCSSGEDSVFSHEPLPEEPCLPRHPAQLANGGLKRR

[11] = molecular target: RPS6KA3 KD1 (human) (UniProt P51812)
[12] = molecular target: TEK (human) (UniProt Q02763)
[13] = molecular target: PRKAA1 (human) (UniProt Q13131)
[14] = molecular target: ERBB2 (human) (UniProt P04626)
[15] = molecular target: STK10 (human) (UniProt O94804)
[16] = molecular target: EPHA8 (human) (UniProt P29322)
[17] = molecular target: PHKG1 (human) (UniProt Q16816)
[18] = molecular target: PIM1 (human) (UniProt P11309)
Chain of PIM1 (human) (P11309 whole entry, looked up): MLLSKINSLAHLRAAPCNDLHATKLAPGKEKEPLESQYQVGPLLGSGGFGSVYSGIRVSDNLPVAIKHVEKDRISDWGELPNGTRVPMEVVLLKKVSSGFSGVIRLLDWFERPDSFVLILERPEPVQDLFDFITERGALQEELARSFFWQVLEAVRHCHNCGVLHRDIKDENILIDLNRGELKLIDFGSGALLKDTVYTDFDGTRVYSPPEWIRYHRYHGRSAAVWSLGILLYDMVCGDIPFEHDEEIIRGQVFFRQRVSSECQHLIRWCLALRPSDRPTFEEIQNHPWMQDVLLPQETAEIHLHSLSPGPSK

[19] = molecular target: FLT3 (human) (UniProt P36888)
[20] = molecular target: LCK (human) (UniProt P06239)
[21] = molecular target: BTK (human) (UniProt Q06187)
[22] = molecular target: ABL1 (human) (UniProt P00519)
[23] = molecular target: KDR (human) (UniProt P35968)
[24] = molecular target: PAK4 (human) (UniProt O96013)
Chain of PAK4 (human) (O96013 whole entry, looked up): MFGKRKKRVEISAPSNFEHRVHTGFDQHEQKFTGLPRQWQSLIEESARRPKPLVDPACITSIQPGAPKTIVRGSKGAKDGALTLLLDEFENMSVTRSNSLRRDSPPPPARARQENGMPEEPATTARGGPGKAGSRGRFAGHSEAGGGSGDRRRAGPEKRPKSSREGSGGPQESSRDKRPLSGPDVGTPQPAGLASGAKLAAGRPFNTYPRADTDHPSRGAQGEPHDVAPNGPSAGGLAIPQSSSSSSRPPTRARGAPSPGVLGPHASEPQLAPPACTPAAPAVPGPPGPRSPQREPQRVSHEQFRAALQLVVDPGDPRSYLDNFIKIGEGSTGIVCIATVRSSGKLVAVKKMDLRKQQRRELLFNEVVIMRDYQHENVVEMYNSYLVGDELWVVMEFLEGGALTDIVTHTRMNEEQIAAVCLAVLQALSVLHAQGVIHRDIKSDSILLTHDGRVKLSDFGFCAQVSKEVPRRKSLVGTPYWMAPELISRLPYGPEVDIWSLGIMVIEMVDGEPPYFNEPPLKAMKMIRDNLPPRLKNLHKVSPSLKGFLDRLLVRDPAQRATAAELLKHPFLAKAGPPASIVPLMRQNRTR

[25] = molecular target: PTK2 (human) (UniProt Q05397)
[26] = molecular target: PKMYT1 (human) (UniProt Q99640)
[27] = molecular target: EPHA7 (human) (UniProt Q15375)
Chain of EPHA7 (human) (Q15375 whole entry, looked up): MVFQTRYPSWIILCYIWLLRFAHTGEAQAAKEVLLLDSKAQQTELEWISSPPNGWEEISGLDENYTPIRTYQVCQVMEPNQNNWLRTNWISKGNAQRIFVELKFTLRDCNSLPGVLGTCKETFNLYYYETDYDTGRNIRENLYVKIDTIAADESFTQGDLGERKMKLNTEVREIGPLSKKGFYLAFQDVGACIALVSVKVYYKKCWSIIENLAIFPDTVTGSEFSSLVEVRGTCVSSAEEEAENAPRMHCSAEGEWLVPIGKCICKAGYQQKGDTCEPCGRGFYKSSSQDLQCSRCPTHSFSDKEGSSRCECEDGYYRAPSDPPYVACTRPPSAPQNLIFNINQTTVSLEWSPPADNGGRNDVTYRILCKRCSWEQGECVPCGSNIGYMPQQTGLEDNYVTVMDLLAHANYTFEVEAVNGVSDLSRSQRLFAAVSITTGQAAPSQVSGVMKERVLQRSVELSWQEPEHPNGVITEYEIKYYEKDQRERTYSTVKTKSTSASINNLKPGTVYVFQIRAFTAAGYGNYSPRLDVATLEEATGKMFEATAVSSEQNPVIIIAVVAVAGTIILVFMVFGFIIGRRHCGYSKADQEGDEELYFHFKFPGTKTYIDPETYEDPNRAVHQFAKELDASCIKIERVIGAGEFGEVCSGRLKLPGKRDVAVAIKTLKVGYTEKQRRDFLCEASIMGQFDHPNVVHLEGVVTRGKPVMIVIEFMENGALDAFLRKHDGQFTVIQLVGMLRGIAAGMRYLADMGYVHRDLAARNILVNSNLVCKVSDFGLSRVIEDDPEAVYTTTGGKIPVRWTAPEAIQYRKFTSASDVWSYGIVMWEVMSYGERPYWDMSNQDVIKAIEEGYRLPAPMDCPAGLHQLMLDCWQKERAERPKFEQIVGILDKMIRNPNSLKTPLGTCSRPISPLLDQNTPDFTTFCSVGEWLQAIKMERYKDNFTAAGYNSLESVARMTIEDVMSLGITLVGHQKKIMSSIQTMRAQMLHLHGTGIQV

[28] = molecular target: FYN (human) (UniProt P06241)
Chain of FYN (human) (P06241 whole entry, looked up): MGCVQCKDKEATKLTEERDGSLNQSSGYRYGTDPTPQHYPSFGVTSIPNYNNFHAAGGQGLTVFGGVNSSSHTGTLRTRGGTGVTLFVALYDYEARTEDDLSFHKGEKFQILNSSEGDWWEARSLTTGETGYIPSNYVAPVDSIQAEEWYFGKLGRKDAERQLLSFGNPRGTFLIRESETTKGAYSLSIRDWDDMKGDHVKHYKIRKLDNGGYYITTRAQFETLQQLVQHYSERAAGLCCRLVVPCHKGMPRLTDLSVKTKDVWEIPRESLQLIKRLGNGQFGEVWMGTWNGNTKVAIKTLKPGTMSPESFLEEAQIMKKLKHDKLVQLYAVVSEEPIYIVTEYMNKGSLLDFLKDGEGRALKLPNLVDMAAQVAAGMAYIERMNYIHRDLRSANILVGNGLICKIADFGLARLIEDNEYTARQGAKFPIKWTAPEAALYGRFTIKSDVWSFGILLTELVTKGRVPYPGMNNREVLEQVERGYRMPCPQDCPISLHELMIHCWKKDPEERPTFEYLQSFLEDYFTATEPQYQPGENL

[29] = molecular target: CAMK1 (human) (UniProt Q14012)
[30] = molecular target: EPHA2 (human) (UniProt P29317)
Chain of EPHA2 (human) (P29317 whole entry, looked up): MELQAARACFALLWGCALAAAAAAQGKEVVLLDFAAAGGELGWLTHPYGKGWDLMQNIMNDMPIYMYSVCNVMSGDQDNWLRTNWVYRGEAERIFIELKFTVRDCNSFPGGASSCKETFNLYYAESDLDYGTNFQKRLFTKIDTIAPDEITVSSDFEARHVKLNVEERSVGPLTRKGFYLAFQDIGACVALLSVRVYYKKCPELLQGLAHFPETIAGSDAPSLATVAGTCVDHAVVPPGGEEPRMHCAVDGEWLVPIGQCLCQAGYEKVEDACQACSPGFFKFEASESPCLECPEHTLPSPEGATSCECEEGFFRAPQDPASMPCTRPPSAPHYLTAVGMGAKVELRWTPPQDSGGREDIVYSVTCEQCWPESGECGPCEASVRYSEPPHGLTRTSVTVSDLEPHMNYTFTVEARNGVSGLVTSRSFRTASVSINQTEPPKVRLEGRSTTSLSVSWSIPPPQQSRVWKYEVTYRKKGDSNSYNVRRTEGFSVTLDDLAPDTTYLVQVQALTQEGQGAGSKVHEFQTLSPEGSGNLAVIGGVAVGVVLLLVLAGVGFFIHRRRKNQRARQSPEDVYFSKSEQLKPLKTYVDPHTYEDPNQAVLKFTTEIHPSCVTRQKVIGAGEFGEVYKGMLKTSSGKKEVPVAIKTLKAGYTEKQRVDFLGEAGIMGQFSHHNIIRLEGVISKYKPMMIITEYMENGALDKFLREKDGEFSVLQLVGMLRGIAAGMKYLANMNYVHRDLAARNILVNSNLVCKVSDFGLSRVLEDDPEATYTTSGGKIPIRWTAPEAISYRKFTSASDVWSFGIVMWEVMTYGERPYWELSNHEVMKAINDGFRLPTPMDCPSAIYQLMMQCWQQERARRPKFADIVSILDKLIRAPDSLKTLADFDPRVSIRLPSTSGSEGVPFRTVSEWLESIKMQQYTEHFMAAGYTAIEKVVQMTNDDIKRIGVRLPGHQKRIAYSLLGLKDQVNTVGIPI

[31] = molecular target: NTRK1 (human) (UniProt P04629)
[32] = molecular target: PAK6 (human) (UniProt Q9NQU5)
[33] = molecular target: ABL1 (human), P00519 [T315I]
[34] = molecular target: CSNK1G1 (human) (UniProt Q9HCP0)
[35] = molecular target: FGR (human) (UniProt P09769)
[36] = molecular target: HCK (human) (UniProt P08631)
[37] = molecular target: NEK6 (human) (UniProt Q9HC98)
[38] = molecular target: MYLK2 (human) (UniProt Q9H1R3)
[39] = molecular target: CLK3 (human) (UniProt P49761)
[40] = molecular target: FER (human) (UniProt P16591)
Chain of FER (human) (P16591 whole entry, looked up): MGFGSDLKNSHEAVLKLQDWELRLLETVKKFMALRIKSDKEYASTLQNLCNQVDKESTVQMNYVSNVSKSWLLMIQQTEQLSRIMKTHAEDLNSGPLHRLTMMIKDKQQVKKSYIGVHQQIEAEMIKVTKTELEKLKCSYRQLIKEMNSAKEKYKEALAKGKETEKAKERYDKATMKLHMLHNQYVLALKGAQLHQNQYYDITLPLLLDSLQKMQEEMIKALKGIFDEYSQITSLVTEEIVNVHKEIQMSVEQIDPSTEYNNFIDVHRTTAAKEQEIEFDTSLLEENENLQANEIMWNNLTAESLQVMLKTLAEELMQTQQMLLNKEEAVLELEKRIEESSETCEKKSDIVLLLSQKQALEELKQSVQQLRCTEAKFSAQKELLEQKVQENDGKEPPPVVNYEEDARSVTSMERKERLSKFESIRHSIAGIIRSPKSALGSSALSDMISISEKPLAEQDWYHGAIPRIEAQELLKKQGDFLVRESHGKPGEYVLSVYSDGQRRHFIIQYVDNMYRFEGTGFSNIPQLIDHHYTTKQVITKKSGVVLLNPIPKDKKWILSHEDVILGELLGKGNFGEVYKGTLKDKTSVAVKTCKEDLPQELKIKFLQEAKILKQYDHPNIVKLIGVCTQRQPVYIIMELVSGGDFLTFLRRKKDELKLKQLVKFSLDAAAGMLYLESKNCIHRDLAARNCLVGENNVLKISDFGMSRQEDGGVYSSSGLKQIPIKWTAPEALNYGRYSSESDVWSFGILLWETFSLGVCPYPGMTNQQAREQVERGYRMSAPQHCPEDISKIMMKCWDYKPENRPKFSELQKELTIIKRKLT

[41] = molecular target: PAK1 (human) (UniProt Q13153)
[42] = molecular target: ABL1 (human), P00519 [Q252H]

- Kd [1]: > 10 µM
- Kd [2]: > 10 µM
- Kd [3]: > 10 µM
- Kd [4]: > 10 µM
- Kd [5]: > 10 µM
- Kd [6]: > 10 µM
- Kd [7]: > 10 µM
- Kd [8]: > 10 µM
- Kd [9]: > 10 µM
- Kd [10]: > 10 µM
- Kd [11]: > 10 µM
- Kd [12]: > 10 µM
- Kd [13]: > 10 µM
- Kd [14]: > 10 µM
- Kd [15]: > 10 µM
- Kd [16]: > 10 µM
- Kd [17]: > 10 µM
- Kd [18]: > 10 µM
- Kd [19]: > 10 µM
- Kd [20]: > 10 µM
- Kd [21]: > 10 µM
- Kd [22]: > 10 µM
- Kd [23]: > 10 µM
- Kd [24]: > 10 µM
- Kd [25]: > 10 µM
- Kd [26]: > 10 µM
- Kd [27]: > 10 µM
- Kd [28]: > 10 µM
- Kd [29]: > 10 µM
- Kd [30]: > 10 µM
- Kd [31]: > 10 µM
- Kd [32]: > 10 µM
- Kd [33]: > 10 µM
- Kd [34]: 3.7 µM
- Kd [35]: > 10 µM
- Kd [36]: > 10 µM
- Kd [37]: > 10 µM
- Kd [38]: > 10 µM
- Kd [39]: > 10 µM
- Kd [40]: > 10 µM
- Kd [41]: > 10 µM
- Kd [42]: > 10 µM
Structure (SMILES): O=C1c2ccccc2-c2n[nH]c3cccc1c23

Structure (SMILES): Oc1ccc(-c2nc(-c3ccc(F)cc3)c(-c3ccncc3)[nH]2)cc1
- Kd [1]: > 10 µM
- Kd [2]: > 10 µM
- Kd [3]: > 10 µM
- Kd [4]: > 10 µM
- Kd [5]: > 10 µM
- Kd [6]: > 10 µM
- Kd [7]: > 10 µM
- Kd [8]: > 10 µM
- Kd [9]: > 10 µM
- Kd [10]: > 10 µM
- Kd [11]: > 10 µM
- Kd [12]: > 10 µM
- Kd [13]: > 10 µM
- Kd [14]: > 10 µM
- Kd [15]: > 10 µM
- Kd [16]: > 10 µM
- Kd [17]: > 10 µM
- Kd [18]: > 10 µM
- Kd [19]: > 10 µM
- Kd [20]: > 10 µM
- Kd [21]: > 10 µM
- Kd [22]: > 10 µM
- Kd [23]: > 10 µM
- Kd [24]: > 10 µM
- Kd [25]: > 10 µM
- Kd [26]: > 10 µM
- Kd [27]: > 10 µM
- Kd [28]: > 10 µM
- Kd [29]: > 10 µM
- Kd [30]: > 10 µM
- Kd [31]: > 10 µM
- Kd [32]: > 10 µM
- Kd [33]: > 10 µM
- Kd [34]: > 10 µM
- Kd [35]: > 10 µM
- Kd [36]: > 10 µM
- Kd [37]: > 10 µM
- Kd [38]: > 10 µM
- Kd [39]: > 10 µM
- Kd [40]: > 10 µM
- Kd [41]: > 10 µM
- Kd [42]: > 10 µM
